One may read the EC50 as the concentration at which the effect is half-maximal.

Where only a bound is given, the exact number is not on record here.

The assay concerns human FXN. The experiment in a line: EC50 assay: FXN mRNA expression by qRT-PCR in GM15850 cells after 48 hrs compound treatment. In kind it is cell-based. Particulars: Homo sapiens, 48 hrs incubation, hFXN expression normalized to hGAPDH (qRT-PCR), read-out: EC50 WT (nM, 48 hr). The protocol:
Cell culture: Cells were cultured in RPMI1640 medium+15% FBS. Cells were maintained at a density between 2e5/mL and 1e6/mL. Cells were centrifuged, resuspended in fresh medium, counted and plated at 150,000 cells per well in 100 uL in a non-coated, flat bottom tissue culture plate.
Compound treatment: 10 mM stock solution of FA GeneTAC was diluted 1:10 in DMSO followed by a 1:100 dilution in growth medium. Working solution was then further diluted to 10× desired final concentration of 150 nM. Compound was then diluted at a 1:3 ratio into growth medium containing 0.01% DMSO. 5-point, 3-fold dose response curve was generated. 11 μL of 1OX compound was added to wells containing 100 μL cell suspension of GM15850. 11 μL growth medium containing 0.01% DMSO was added to all wells not treated with FA GeneTAC. Cells were allowed to incubate for 48 hrs prior to cell lysis using guanidine isothiocyanate solution.
RNA isolation: Total RNA was isolated and purified in 384-well column filter plates using chaotropic salt.
qRT-PCR: qRT-PCR reactions were assembled using AgPath-ID reagents (Thermo Fisher) using 6 uL mastermix and 4 μL RNA. qRT-PCR TaqMan primer probe sets against human FXN (Assay ID Hs01075496_m1) and human GAPDH (Assay ID Hs00266705_g1) were used to measure the intended targets. qRT-PCR was run on the ThermoFisher QuantStudio 6 PRO instrument using the manufacturer's recommended cycling conditions.
Data analysis: qPCR data was analyzed using Thermo Fisher Design and Analysis software. Data was exported to Excel and hFXN expression was normalized to hGAPDH expression
A<100 nM; B is 100 nM to 500 nM; C>500 nM.
Turning to `Cc1sc2c(c1C)C(c1ccc(Cl)cc1)=N[C@@H](CC(=O)N1CCC(CN3CCN(CCOCCOCCOCCOCCOCCOCCNC(=O)CCNC(=O)c4nc(NC(=O)CCNC(=O)C5=CC(NC(=O)c6nc(NC(=O)CCNC(=O)c7cc(NC(=O)c8nccn8C)cn7C)cn6C)CN5C)cn4C)CC3)CC1)c1nnc(C)n1-2` (stereo partly shown) [Compound 57], the 50% effective concentration (EC50) was in the range of 100 to 500 nM.
The figure for `Cc1cc(F)cc(C)c1Oc1ccc(C(C)(C)O)cc1-c1cn(C)c(=O)c2[nH]c(C(=O)Nc3ccc(OCCOCCOCCOCCOCCOCCOCCOCCOCCOCCNC(=O)CCNC(=O)c4nc(NC(=O)CCNC(=O)c5cc(NC(=O)c6nc(NC(=O)CCNC(=O)c7cc(NC(=O)c8nccn8C)cn7C)cn6C)cn5C)cn4C)cc3)cc12` [Compound 195] is below 100 nM.
The result for `COc1ccc2c(c1)C(c1ccc(Cl)cc1)=N[C@@H](CC(=O)N1CCN(C3CCN(CCOCCOCCOCCOCCOCCOCCNC(=O)CCNC(=O)c4nc(NC(=O)CCNC(=O)c5cc(NC(=O)c6nc(NC(=O)CCNC(=O)c7cc(NC(=O)c8nccn8C)cn7C)cn6C)cn5C)cn4C)CC3)CC1)c1nnc(C)n1-2` [Compound 54] reads above 500 nM; that for `Cc1sc2c(c1C)C(c1ccc(Cl)cc1)=N[C@@H](CC(=O)NCCOCCOCCOCCOCCOCCOCCOCCNC(=O)c1sc3c(c1C)C(c1ccc(Cl)cc1)=N[C@@H](CC(=O)NC1CCN(CCOCCOCCOCCOCCOCCOCCOCCOCCNC(=O)CCNC(=O)c4nc(NC(=O)CCNC(=O)c5cc(NC(=O)c6nc(NC(=O)CCNC(=O)c7cc(NC(=O)c8nccn8C)cn7C)cn6C)cn5C)cn4C)CC1)c1nnc(C)n1-3)c1nnc(C)n1-2` [Compound 117], below 100 nM.
The figure for `COCCOCCOCCOCCOCCOCCOCCOCCOCCOCCOCCC(=O)N1CCC(NC(=O)CCOCCOCCOCCN2CCC(NC(=O)C[C@@H]3N=C(c4ccc(Cl)cc4)c4c(sc(C)c4C)-n4c(C)nnc43)CC2)(C(=O)NCCOCCOCCOCCOCCNC(=O)CCNC(=O)c2nc(NC(=O)CCNC(=O)c3cc(NC(=O)c4nc(NC(=O)CCNC(=O)c5cc(NC(=O)c6nccn6C)cn5C)cn4C)cn3C)cn2C)CC1` [Compound 76] is 100 to 500 nM; for `Cc1sc2c(c1C)C(c1ccc(Cl)cc1)=N[C@@H](CC(=O)Nc1ccc(N3CCC(N4CCN(CCOCCOCCOCCOCCOCCNC(=O)CCNC(=O)c5nc(NC(=O)CCNC(=O)c6cc(NC(=O)c7nc(NC(=O)CCNC(=O)c8cc(NC(=O)c9nccn9C)cn8C)cn7C)cn6C)cn5C)CC4)CC3)cc1)c1nnc(C)n1-2` [Compound 9] it is below 100 nM.
For `Cc1sc2c(c1C)C(c1ccc(Cl)cc1)=N[C@@H](CC(=O)N[C@H]1CC[C@@H](N(C)CCOCCOCCOCCOCCOCCOCCOCCOCCNC(=O)CCNC(=O)c3nc(NC(=O)CCNC(=O)c4cc(NC(=O)c5nc(NC(=O)CCNC(=O)c6cc(NC(=O)c7nccn7C)cn6C)cn5C)cn4C)cn3C)CC1)c1nnc(C)n1-2` [Compound 87], the EC50 was below 100 nM.
The result for `Cc1cc(F)cc(C)c1Oc1ccc(C(C)(C)O)cc1-c1cn(C)c(=O)c2[nH]c(C(=O)Nc3ccc(OCCOCCOCCOCCOCCOCCOCCOCCNC(=O)CCNC(=O)c4nc(NC(=O)CCNC(=O)c5cc(NC(=O)c6nc(NC(=O)CCNC(=O)c7cc(NC(=O)c8nccn8C)cn7C)cn6C)cn5C)cn4C)cc3)cc12` [Compound 205, N-(5-{[2-({2-[(2-{[23-(4-{4-[2-(4-fluoro-2,6-dimethylphenoxy)-5-(2-hydroxypropan-2-yl)phenyl]-6-methyl-7-oxo-1H-pyrrolo[2,3-c]pyridine-2-amido}phenoxy)-3,6,9,12,15,18,21-heptaoxatricosan-1-yl]carbamoyl}ethyl)carbamoyl]-1-methylimidazol-4-yl}carbamoyl)ethyl]carbamoyl}-1-methylpyrrol-3-yl)-1-methyl-4-(3-{[1-methyl-4-(1-methylimidazole-2-amido)pyrrol-2-yl]formamido}propanamido)imidazole-2-carboxamide] reads below 100 nM.
`Cc1cc(F)cc(C)c1Oc1ccc(C(C)(C)O)cc1-c1cn(C)c(=O)c2[nH]c(C(=O)NC3CCN(CC#CC#CC4CCN(CCOCCOCCOCCOCCOCCOCCOCCNC(=O)CCNC(=O)c5nc(NC(=O)CCNC(=O)c6cc(NC(=O)c7nc(NC(=O)CCNC(=O)c8cc(NC(=O)c9nccn9C)cn8C)cn7C)cn6C)cn5C)CC4)CC3)cc12` [Compound 175]: the EC50 was below 100 nM.
Take `Cc1cc(F)cc(C)c1Oc1ccc(C(C)(C)O)cc1-c1cn(C)c(=O)c2[nH]c(C(=O)NC3CCN(CCOCCOCCOCCOCCOCCOCCOCCOCCNC(=O)CCNC(=O)c4nc(NC(=O)CCNC(=O)c5cc(NC(=O)c6nc(NC(=O)CCNC(=O)c7cc(NC(=O)c8nccn8C)cn7C)cn6C)cn5C)cn4C)CC3)cc12` [Compound 47]: the concentration giving a half-maximal response (EC50) is below 100 nM.
The result for `Cc1cc(F)cc(C)c1Oc1ccc(C(C)(C)O)cc1-c1cn(C)c(=O)c2[nH]c(C(=O)NCCOCCOCCOCCOCCOCCOCCOCCOCCNC(=O)CCNC(=O)c3nc(NC(=O)CCNC(=O)c4cc(NC(=O)c5nc(NC(=O)CCNC(=O)c6cc(NC(=O)c7nccn7C)cn6C)cn5C)cn4C)cn3C)cc12` [Compound 50] reads below 100 nM.
The result for `Cc1sc2c(c1C)C(c1ccc(Cl)cc1)=N[C@@H](CC(=O)NC1CCN(CCOCCOCCOCCN3CCN(CC4CCN(CCOCCNC(=O)CCNC(=O)c5nc(NC(=O)CCNC(=O)c6cc(NC(=O)c7nc(NC(=O)CCNC(=O)c8cc(NC(=O)c9nccn9C)cn8C)cn7C)cn6C)cn5C)CC4)CC3)CC1)c1nnc(C)n1-2` [Compound 33] reads above 500 nM; that for `Cc1sc2c(c1C)C(c1ccc(NC(=O)COCCOCCOCCN3CCN(CC4CCN(C)CC4)CC3)cc1)=N[C@@H](CC(=O)N1CCC(C#CC#CC3CCN(CCOCCOCCOCCOCCNC(=O)CCNC(=O)c4nc(NC(=O)CCNC(=O)c5cc(NC(=O)c6nc(NC(=O)CCNC(=O)c7cc(NC(=O)c8nccn8C)cn7C)cn6C)cn5C)cn4C)CC3)CC1)c1nnc(C)n1-2` [Compound 121], 100 to 500 nM.
For the compound `Cc1c(C(=O)NCCN2CCN(C)CC2)sc2c1C(c1ccc(Cl)cc1)=N[C@@H](CC(=O)N1CCC(C#CC#CC3CCN(CCOCCOCCOCCOCCNC(=O)CCNC(=O)c4nc(NC(=O)CCNC(=O)c5cc(NC(=O)c6nc(NC(=O)CCNC(=O)c7cc(NC(=O)c8nccn8C)cn7C)cn6C)cn5C)cn4C)CC3)CC1)c1nnc(C)n1-2` [Compound 131], the EC50 was 100 to 500 nM.
The figure for `COc1ccc2c(c1)C(c1ccc(Cl)cc1)=N[C@@H](CC(=O)N1CCN(CC3CCN(CCOCCOCCOCCOCCOCCOCCOCCNC(=O)CCNC(=O)c4nc(NC(=O)CCNC(=O)c5cc(NC(=O)c6nc(NC(=O)CCNC(=O)c7cc(NC(=O)c8nccn8C)cn7C)cn6C)cn5C)cn4C)CC3)CC1)c1nnc(C)n1-2` [Compound 46] is above 500 nM; for `Cc1sc2c(c1C)C(c1ccc(Cl)cc1)=N[C@@H](CC(=O)NC1CCN(CCOCCOCCOCCOCCOCCOCCOCCN3CCN(C(=O)CCNC(=O)c4nc(NC(=O)CCNC(=O)c5nc(NC(=O)c6nc(NC(=O)CCNC(=O)c7cc(NC(=O)c8nccn8C)cn7C)cn6C)cn5C)cn4C)CC3)CC1)c1nnc(C)n1-2` [Compound 98] it is 100 to 500 nM.
The figure for `Cc1cc(F)cc(C)c1Oc1ccc(C(C)(C)O)cc1-c1cn(C)c(=O)c2[nH]c(C(=O)N3CCC(CN4CCN(CCOCCOCCOCCOCCOCCOCCNC(=O)CCNC(=O)c5nc(NC(=O)CCNC(=O)c6cc(NC(=O)c7nc(NC(=O)CCNC(=O)c8cc(NC(=O)c9nccn9C)cn8C)cn7C)cn6C)cn5C)CC4)CC3)cc12` [Compound 168] is 100 to 500 nM.
The result for `Cc1sc2c(c1C)C(c1ccc(Cl)cc1)=N[C@@H](CC(=O)N1CCC(N3CCN(CCOCCOCCOCCOCCOCCOCCNC(=O)CCNC(=O)c4nc(NC(=O)CCNC(=O)c5cc(NC(=O)c6nc(NC(=O)CCNC(=O)c7cc(NC(=O)c8nccn8C)cn7C)cn6C)cn5C)cn4C)CC3)CC1)c1nnc(C)n1-2` [Compound 51] reads 100 to 500 nM; that for `CC(=O)N1c2ccc(-c3ccc(C(=O)N4CCC(C#CC#CC5CCN(CCOCCOCCNC(=O)CCNC(=O)c6nc(NC(=O)CCNC(=O)c7cc(NC(=O)c8nc(NC(=O)CCNC(=O)c9cc(NC(=O)c%10nccn%10C)cn9C)cn8C)cn7C)cn6C)CC5)CC4)cc3)cc2C(Nc2ccc(Cl)cc2)C[C@@H]1C` (stereo partly shown) [Compound 144], below 100 nM; that for `COc1ccc2c(c1)C(c1ccc(Cl)cc1)=N[C@@H](CC(=O)N1CCC(N3CCN(CCOCCOCCOCCOCCOCCOCCNC(=O)CCNC(=O)c4nc(NC(=O)CCNC(=O)c5cc(NC(=O)c6nc(NC(=O)CCNC(=O)c7cc(NC(=O)c8nccn8C)cn7C)cn6C)cn5C)cn4C)CC3)CC1)c1nnc(C)n1-2` [Compound 52], above 500 nM.
On to `Cc1sc2c(c1C)C(c1ccc(Cl)cc1)=N[C@@H](CC(=O)NC1CCN(CCOCCOCCN(CCOCCOCCOCCOCCOCCNC(=O)CCNC(=O)c3nc(NC(=O)CCNC(=O)c4cc(NC(=O)c5nc(NC(=O)CCNC(=O)c6cc(NC(=O)c7nccn7C)cn6C)cn5C)cn4C)cn3C)CCOCCOCCN3CCC(NC(=O)C[C@@H]4N=C(c5ccc(Cl)cc5)c5c(sc(C)c5C)-n5c(C)nnc54)CC3)CC1)c1nnc(C)n1-2` [Compound 112], for which the EC50 lay in the range of 100 to 500 nM.
The figure for `Cc1sc2c(c1C)C(c1ccc(Cl)cc1)=N[C@@H](CC(=O)NC1CCN(CCOCCN3CCC(CN4CCN(CCOCCOCCOCCNC(=O)CCNC(=O)c5nc(NC(=O)CCNC(=O)c6cc(NC(=O)c7nc(NC(=O)CCNC(=O)c8cc(NC(=O)c9nccn9C)cn8C)cn7C)cn6C)cn5C)CC4)CC3)CC1)c1nnc(C)n1-2` [Compound 35] is 100 to 500 nM.

The values above are taken from patent US20240124491A1, “METHODS AND COMPOUNDS FOR TREATING FRIEDREICH'S ATAXIA” (Design Therapeutics, Inc., priority 2021, published 2024).
